Experimental data from patent US20250041317A1, “NEUROACTIVE STEROID FOR THE TREATMENT OF HUNTINGTON'S DISEASE” (SAGE THERAPEUTICS, INC., priority 2021, published 2025).

Experiments:
Patients with HD = test: Tests of executive functioning (Cogstate Battery); assay type: in vivo, human; conditions: 1 mg, FIGS. 1-4
Source text: (§1) Additional objectives included an assessment of changes in subject performance on cognitive tasks.
(§2) Cogstate Battery was used to assess cognitive functioning, such as attention, working memory, information processing speed, executive function, and motor skills, and consists of the Stop Signal Reaction Test (STOP), Detection Task (DET), Identification Task (IDN), One Back Learning Task (ONB), Two Back Learning Task (TWOB), and Groton Maze Learning Test (GML).
(§3) The endpoints for each Cogstate Battery tests are change from baseline scores at each post-baseline assessment.

[1] = Phase 1 MAD study: safety and tolerability of Compound 1 Oral Solution
Source text: Subjects were assigned sequentially to one of 3 cohorts. […] Cohorts 1 and 2 were divided into 4 sub-groups of 3 subjects. Each sub-group in Part A started dosing on Day 1 over the course of 4 consecutive days, with the remaining dosing days overlapping in a staggered fashion. A maximum of 3 Part A subjects per calendar day per site will begin treatment at Day 1.
The Screening Period began with the signing of the informed consent form (ICF) at the Screening Visit. An optional genetic sample was collected during screening. On Day −2 (Part A) or Day −1 (Part B), qualified subjects were admitted to the unit. Subjects were discharged from the unit on Day 17 after completion of all assessments, provided that the Investigator was satisfied that it is safe for the subject to be discharged. In total, the inpatient stay for Part A subjects was approximately 19 days, and approximately 18 days for Part B subjects. Subjects returned for a Follow-up Visit on Day 21 (±2 days), approximately one week after the end of treatment.

[2] = tested on: Patients with Huntington's Disease; test: Assessment of psychomotor speed (Psychomotor Vigilance Task Test, FIG. 5); assay type: in vivo, human; conditions: patients with HD, 1 mg
Source text: FIG. 5 depicts performance measured using the Psychomotor Vigilance Task Test in Patients with Huntington's Disease and Healthy Participants. Z-Transformed Change from Baseline to Day 14 (Mean±SE) is depicted.
as §1

[3] = tested on: subjects with early manifest Huntington's disease; test: Cogstate Two Back Test (TWOB), working memory; assay type: in vivo, human; conditions: HD Subjects (Part B), 1 mg
Source text: (§4) Sentinel dosing of subjects was employed for Cohort 3.
as §2, §3
(§5) Mean change from baseline scores at all post-baseline assessments were analyzed using mixed-effect repeated measure model (MMRM); with dose, visit, interaction between dose and visit as fixed effects, baseline as a covariate and subject as random effect. Unstructured covariance structure was used to model the variance-covariance matrix of the repeated measurements. If estimation issues arose during construction of covariance structure, compound symmetry was used in place of unstructured. The least square (LS) means differences between dose groups and placebo at each post baseline timepoint were estimated along with 95% confidence intervals.

[4] = tested on: subjects with early manifest Huntington's disease; test: Cogstate Groton Maze Learning Test (GML), executive function; assay type: in vivo, human; conditions: HD Subjects (Part B), 1 mg, all timepoints except for day 4
Source text: as §4, §2, §3, §5

[5] = healthy adults (0.5 mg or 1.0 mg) and subjects with early manifest HD, multiple oral doses

Compound: C[C@H](CC[C@](C)(O)C(F)(F)F)[C@H]1CC[C@H]2[C@@H]3CC=C4C[C@@](C)(O)CC[C@]4(C)[C@H]3CC[C@]12C [Compound 1]
- Change from baseline on tests of executive functioning (Patients with HD): improvements from baseline
- TEAEs in Part B ([1]; Part B, subjects with HD): No TEAEs were reported
- Deaths [1, 5]: No deaths were reported
- Serious AEs [1, 5]: No serious AEs were reported
- TEAEs leading to study withdrawal or treatment discontinuation [1, 5]: No TEAEs leading to study withdrawal or treatment discontinuation were reported
- Suicidal ideation or suicidal behavior compared to baseline, C-SSRS ([1]; measured by C-SSRS): no signals for increased suicidal ideation or suicidal behavior
- Change from baseline on assessment of psychomotor speed [2]: No changes from baseline were observed
- Performance on the two-back test vs baseline, statistical significance ([3]; Days 8-14, threshold p<0.05): significant improvement compared to baseline
- Performance on the two-back test vs baseline ([3]; all timepoints after baseline): improvement in performance
- Performance in the GML test vs baseline [4]: improvement
